The values that follow come from US8278304B2, “Substituted 4-hydroxypyrimidine-5-carboxamides” (Merck Sharp & Dohme Corp., priority 2008, dated 2012).

Broadly, the IC50 is the point on the concentration scale where inhibition reaches its midpoint.

The target of this assay is T1, PHD2 (Homo sapiens, UniProt Q9GZT9).
T1 construct: FLAG-tagged full length PHD2 expressed in and purified from baculovirus-infected Sf9 cells; FLAG; made in house; host or cells: baculovirus-infected Sf9 cells
As to the kind of experiment: PHD2 / HIF-1α peptide hydroxylation assay, time resolved fluorescence (VHL complex detection). In kind it is biochemical. The following applies: FLAG-tagged full length PHD2; 0.2 μM 2-oxoglutarate, 0.5 μM HIF-1α peptide; read-out: PHD2 Activity (PHD2 binding activity expressed as IC50 (nM)). How it is done:
To each well of a 96-well plate was added 1 μL of test compound in DMSO and 20 μl of assay buffer (50 mM Tris pH 7.4/0.01% Tween-20/0.1 mg/ml bovine serum albumin/10 μM ferrous sulfate/1 mM sodium ascorbate/20 μg/ml catalase) containing 0.15 μg/ml FLAG-tagged full length PHD2 expressed in and purified from baculovirus-infected Sf9 cells. After a 30 min preincubation at room temperature, the enzymatic reactions were initiated by the addition of 4 μL of substrates (final concentrations of 0.2 μM 2-oxoglutarate and 0.5 μM HIF-1α peptide biotinyl-[…]).

Where a name gives a salt, the structure may show the parent alone. Some results are limits rather than exact numbers.

T1 sequence (Q9GZT9 whole entry): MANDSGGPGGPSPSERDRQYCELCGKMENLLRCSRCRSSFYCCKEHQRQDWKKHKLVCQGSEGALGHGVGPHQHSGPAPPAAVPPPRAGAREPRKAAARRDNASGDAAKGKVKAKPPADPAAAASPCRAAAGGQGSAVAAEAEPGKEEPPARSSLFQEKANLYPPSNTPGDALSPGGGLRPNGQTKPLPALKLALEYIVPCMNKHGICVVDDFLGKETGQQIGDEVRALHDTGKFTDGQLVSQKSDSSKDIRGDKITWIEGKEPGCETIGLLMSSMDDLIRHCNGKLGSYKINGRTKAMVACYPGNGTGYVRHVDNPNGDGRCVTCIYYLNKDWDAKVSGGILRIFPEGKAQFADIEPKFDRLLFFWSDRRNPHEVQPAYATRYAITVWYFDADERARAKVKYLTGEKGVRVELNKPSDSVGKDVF

As for `Cc1csc(C(C)NC(=O)c2cnc(-n3cccn3)nc2O)n1` (stereo not drawn) [Example 117, 4-hydroxy-N-[1-(4-methyl-1,3-thiazol-2-yl)ethyl]-2-(1H-pyrazol-1-yl)pyrimidine-5-carboxamide hydrochloride], the IC50 is at most 10 nM. For `COc1ccc(C(NC(=O)c2cnc(-c3cccnn3)nc2O)c2ccc(OC)nc2)cc1` (single isomer, unassigned) [Example 191], the IC50 was at most 10 nM. Under `CC(C)C(NC(=O)c1cnc(-n2cccn2)nc1O)c1ccccc1` (stereo not drawn) [Example 131, 4-hydroxy-N-(2-methyl-1-phenylpropyl)-2-(1H-pyrazol-1-yl)pyrimidine-5-carboxamide] stands at most 10 nM; under `O=C(NCc1ccc(F)cc1)c1cnc(-c2ccc(C(F)(F)F)cn2)nc1O` [Example 11, N-(4-fluorobenzyl)-4-hydroxy-2-[5-(trifluoromethyl)pyridin-2-yl]pyrimidine-5-carboxamide], 1000 to 10000 nM. Under `COc1ccc(C(NC(=O)c2cnc(-c3cccnn3)nc2O)c2cccc(C)n2)c(OC)c1` (stereo not drawn) [Example 115, N-[(2,4-Dimethoxyphenyl)(6-methylpyridin-2-yl)methyl]-4-hydroxy-2-pyridazin-3-ylpyrimidine-5-carboxamide] stands at most 10 nM; under `COc1ccc(C(NC(=O)c2cnc(-c3cccnn3)nc2O)c2ccc(OC)nc2)cn1` [Example 192, N-[bis(6-methoxypyridin-3-yl)methyl]-4-hydroxy-2-(pyridazin-3-yl)pyrimidine-5-carboxamide], at most 10 nM.

Consider `COc1ccc(C(NC(=O)c2cnc(-c3cccnn3)nc2O)c2ccc(C)nc2)cc1` (stereo not drawn) [Example 114, 4-Hydroxy-N-[(4-methoxyphenyl)(6-methylpyridin-3-yl)methyl]-2-pyridazin-3-ylpyrimidine-5-carboxamide], for which the IC50 is at most 10 nM. Under `O=C(NCc1ccc(C(F)(F)F)cc1)c1cnc(-c2cnccn2)nc1O` [Example 20, 4-Hydroxy-2-pyrazin-2-yl-N-[4-(trifluoromethyl)benzyl]pyrimidine-5-carboxamide] stands 10 to 100 nM. Under `O=C(NCc1ccc(C(F)(F)F)nc1)c1cnc(-n2cccn2)nc1O` [Example 10] stands 10 to 100 nM; under `O=C(NC1(c2ccccc2)CCCCC1)c1cnc(-n2cccn2)nc1O` [Example 94, 4-hydroxy-N-(1-phenylcyclohexyl)-2-(1H-pyrazol-1-yl)pyrimidine-5-carboxamide], at most 10 nM.

In the case of `O=C(N[C@H]1CCc2ccccc21)c1cnc(-n2cccn2)nc1O` [Example 119, N-[(1S)-2,3-dihydro-1H-inden-1-yl]-4-hydroxy-2-(1H-pyrazol-1-yl)pyrimidine-5-carboxamide], the IC50 fell in the range of 10 to 100 nM. In the case of `COc1ccc(C(NC(=O)c2cnc(-c3cccnn3)nc2O)c2ccc(F)cc2)c(OC)n1` (stereo not drawn) [Example 177, N-[(2,6-dimethoxypyridin-3-yl)(4-fluorophenyl)methyl]-4-hydroxy-2-(pyridazin-3-yl)pyrimidine-5-carboxamide], the IC50 is at most 10 nM. Regarding `Cc1cccc(-c2ncc(C(=O)Nc3ccc(F)cc3Cl)c(O)n2)n1` [Example 16, N-(2-chloro-4-fluorophenyl)-4-hydroxy-2-(6-methylpyridin-2-yl)pyrimidine-5-carboxamide], the IC50 was 1000 to 10000 nM. Under `COc1ccc(C(NC(=O)c2cnc(-c3cccnn3)nc2O)c2ccc(C#N)cc2)cc1` (single isomer, unassigned) [Example 151, N-[(4-cyanophenyl)(4-methoxyphenyl)methyl]-4-hydroxy-2-(pyridazin-3-yl)pyrimidine-5-carboxamide] stands at most 10 nM.

For the compound `O=C(N[C@H](c1ccccc1)[C@@H](O)c1ccccc1)c1cnc(-c2cccnn2)nc1O` [Example 138], the IC50 is at most 10 nM. Regarding `O=C(NCc1ccc(Oc2ccccc2)cc1)c1cnc(-n2cccn2)nc1O` [Example 93, 4-hydroxy-N-(4-phenoxybenzyl)-2-(1H-pyrazol-1-yl)pyrimidine-5-carboxamide], the IC50 was at most 10 nM. Under `COc1ccc(CC(NC(=O)c2cnc(-c3cccnn3)nc2O)c2ccc(C#N)cc2)cc1` (single isomer, unassigned) [Example 161, N-[1-(4-cyanophenyl)-2-(4-methoxyphenyl)ethyl]-4-hydroxy-2-(pyridazin-3-yl)pyrimidine-5-carboxamide] stands at most 10 nM; under `O=C(NC(c1ccccc1)c1ccccn1)c1cnc(-c2cccnn2)nc1O` (stereo not drawn) [Example 136, 4-hydroxy-N-[phenyl(pyridin-2-yl)methyl]-2-pyridazin-3-ylpyrimidine-5-carboxamide trifluoroacetate (salt)], at most 10 nM. Under `O=C(NN1CCCCC1)c1cnc(-n2cccn2)nc1O` [Example 80, 4-hydroxy-N-piperidin-1-yl-2-(1H-pyrazol-1-yl)pyrimidine-5-carboxamide trifluoroacetate (salt)] stands 10 to 100 nM; under `C[C@@H](NC(=O)c1cnc(-n2cccn2)nc1O)C1CCCCC1` [Example 84, N-[(1R)-1-cyclohexylethyl]-4-hydroxy-2-(1H-pyrazol-1-yl)pyrimidine-5-carboxamide], 10 to 100 nM; under `CC(C)(NC(=O)c1cnc(-c2cnccn2)nc1O)c1ccccc1` [Example 19, 4-Hydroxy-N-(1-methyl-1-phenylethyl)-2-pyrazin-2-ylpyrimidine-5-carboxamide], 10 to 100 nM. Under `Cc1ccc(Oc2ccc(CNC(=O)c3cnc(-n4cccn4)nc3O)cc2)cc1` [Example 97, 4-hydroxy-N-[4-(4-methylphenoxy)benzyl]-2-(1H-pyrazol-1-yl)pyrimidine-5-carboxamide] stands at most 10 nM; under `COCc1ccc(C(NC(=O)c2cnc(-c3cccnn3)nc2O)c2ccc(OC)cc2)cc1` (single isomer, unassigned) [Example 182, 4-Hydroxy-N-[[4-(methoxymethyl)phenyl](4-methoxyphenyl)methyl]-2-pyridazin-3-ylpyrimidine-5-carboxamide], at most 10 nM; under `Cc1cnc(CNC(=O)c2cnc(-n3cccn3)nc2O)cn1` [Example 66, 4-Hydroxy-N-[(5-methylpyrazin-2-yl)methyl]-2-(1H-pyrazol-1-yl)pyrimidine-5-carboxamide], 100 to 1000 nM. With `COc1ccc(C(NC(=O)c2cnc(-c3cccnn3)nc2O)c2ccc(Cl)nc2)cc1` (stereo not drawn) [Example 169, N-[(6-chloropyridin-3-yl)(4-methoxyphenyl)methyl]-4-hydroxy-2-(pyridazin-3-yl)pyrimidin-5-carboxamide], the IC50 is at most 10 nM. Under `O=C(NC(c1ccccc1)c1ccc(C(F)(F)F)nc1)c1cnc(-n2cccn2)nc1O` (single isomer, unassigned) [Example 143, 4-hydroxy-N-{phenyl[6-(trifluoromethyl)pyridin-3-yl]methyl}-2-(1H-pyrazol-1-yl)pyrimidine-5-carboxamide] stands at most 10 nM. Under `C[C@H](NC(=O)c1cnc(-n2cccn2)nc1O)c1ccc(Oc2ccccc2)cc1` [Example 129, 4-hydroxy-N-[(1S)-1-(4-phenoxyphenyl)ethyl]-2-(1H-pyrazol-1-yl)pyrimidine-5-carboxamide] stands at most 10 nM. Under `CC[C@H](NC(=O)c1cnc(-c2nc(C)cs2)nc1O)c1ccccc1` [Example 41, 4-Hydroxy-2-(4-methyl-1,3-thiazol-2-yl)-N-[(1S)-1-phenylpropyl]pyrimidine-5-carboxamide] stands 100 to 1000 nM; under `COc1ccc(CC(NC(=O)c2cnc(-c3cccnn3)nc2O)c2ccc(C#N)cc2)cc1` (single isomer, unassigned) [Example 160, N-[1-(4-cyanophenyl)-2-(4-methoxyphenyl)ethyl]-4-hydroxy-2-(pyridazin-3-yl)pyrimidine-5-carboxamide], 10 to 100 nM.

On to `O=C(c1cnc(-n2cccn2)nc1O)N1CCCCC1` [Example 81, 5-(Piperidin-1-ylcarbonyl)-2-(1H-pyrazol-1-yl)pyrimidin-4-ol], for which the IC50 lay in the range of 1000 to 10000 nM. Under `O=C(NCc1ccccc1Cl)c1cnc(-c2cccnn2)nc1O` [Example 24, N-(2-chlorobenzyl)-4-hydroxy-2-pyridazin-3-ylpyrimidine-5-carboxamide] stands 10 to 100 nM; under `O=C(N[C@H](c1ccccc1)[C@@H](O)c1ccccc1)c1cnc(-n2cccn2)nc1O` [Example 120, 4-hydroxy-N-[(1R,2S)-2-hydroxy-1,2-diphenylethyl]-2-(1H-pyrazol-1-yl)pyrimidine-5-carboxamide], at most 10 nM; under `COc1ccc(C(NC(=O)c2cnc(-c3cccnn3)nc2O)c2ccc(C)nc2)cc1` (single isomer, unassigned) [Example 146, 4-hydroxy-N-[(4-methoxyphenyl)(6-methylpyridin-3-yl)methyl]-2-(pyridazin-3-yl)pyrimidine-5-carboxamide], at most 10 nM. Under `Cc1ccc(CNC(=O)c2cnc(-n3cccn3)nc2O)cc1` [Example 77, 4-Hydroxy-N-(4-methylbenzyl)-2-(1H-pyrazol-1-yl)pyrimidine-5-carboxamide] stands 10 to 100 nM. Under `COc1ccc(C(NC(=O)c2cnc(-c3cccnn3)nc2O)c2nc3ccccc3s2)cc1` (stereo not drawn) [Example 173, N-[1,3-benzothiazol-2-yl(4-methoxyphenyl)methyl]-4-hydroxy-2-(pyridazin-3-yl)pyrimidine-5-carboxamide] stands at most 10 nM; under `O=C(NCc1ccc(C(F)(F)F)cc1)c1cnc(-n2cccn2)nc1O` [Example 54, 4-Hydroxy-2-(1H-pyrazol-1-yl)-N-[4-(trifluoromethyl)benzyl]pynmidine-5-carboxamide], at most 10 nM.
